Reference: US20240279302A1, “OLFACTORY RECEPTOR EXPRESSING METHOD AND RESPONSE MEASUREMENT METHOD” (Kao Corporation, priority 2021, published 2024)
Entries after “also recorded” stand apart in the source; their conditions may differ.

Assays:
[1] = target: T1, OR2A25 (original human receptor) (Homo sapiens, UniProt A4D2G3); assay: Luciferase assay (odorant response); assay type: cell-based
T1 construct: expressed in transfected cells; host or cells: HEK293
Description: (§1) For luciferase assay, a reaction solution was prepared according to composition shown in Table 4, left standing for 20 minutes in a clean bench, and then added to each well of a 96-well plate (Becton, Dickinson and Company). Subsequently, 100 μL of HEK293 cells suspended in DMEM (Nacalai Tesque, Inc.) was inoculated at 2×10^5 cells/cm^2 to each well, and cultured for 24 hours in an incubator kept at 37° C. and 5% CO2. Cells expressing no olfactory receptor (Mock) were provided as a control.
(§2) The medium was removed from the cultures prepared in 2), and 75 μL of a test substance solution with a predetermined concentration prepared with a fresh medium was added thereto. The cells were cultured for 4 hours in a CO2 incubator and the luciferase gene was sufficiently expresses in the cells. Luciferase activity was measured using Dual-Glo™ luciferase assay system (Promega Corp.) in accordance with the operation manual of the product. A luminescence value derived from firefly luciferase induced by test substance stimulation in each well of the 96-well plate was divided by a luminescence value derived from Renilla luciferase to calculate a signal, which was then used in analysis. The signal under each transfection condition was normalized with the signal under a stimulation-free condition defined as 0% and the signal by stimulation with 30 μM forskolin defined as 100%, and used as a response (%) in analysis.

[2] = system: 6Y1; details: as disclosed in Non Patent Literature 2; cited from earlier work
[3] = target: T2, consensus 10A4, (c) Ortholog (Homo sapiens, UniProt Q9H209, A244S/A267T/E4G/H132R/H139R/I140R/I51T/K296S/K303R/L305V/Q237K/Q264R/S141A/S155P/S269P/S279Y/S293L/S312P/T22S/V195L); assay: Luciferase assay (odorant response); assay type: cell-based
T2 construct: expressed in transfected cells; host or cells: HEK293
T2 sequence (Q9H209 1-315 with the stated changes): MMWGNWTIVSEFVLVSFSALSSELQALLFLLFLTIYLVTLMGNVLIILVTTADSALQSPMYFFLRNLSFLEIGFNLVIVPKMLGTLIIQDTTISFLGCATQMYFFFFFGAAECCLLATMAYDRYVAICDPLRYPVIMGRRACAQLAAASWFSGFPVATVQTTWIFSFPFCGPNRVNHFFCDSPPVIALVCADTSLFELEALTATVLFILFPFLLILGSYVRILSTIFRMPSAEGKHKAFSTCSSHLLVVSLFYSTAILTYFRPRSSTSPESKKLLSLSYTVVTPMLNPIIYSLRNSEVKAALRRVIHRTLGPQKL
Description: as §1, §2

[4] = target: T3, consensus 10A2, (c) Ortholog (Homo sapiens, UniProt Q9H208, A297G/C30S/G257S/H207R/I240V/M268V/N222H/T20I/V292F); assay: Luciferase assay (odorant response); assay type: cell-based
T3 construct: expressed in transfected cells; host or cells: HEK293
T3 sequence (Q9H208 with tags, fused parts or gaps T20I/C30S/H207R/N222H/I240V/G257S/M268V/V292F/A297G): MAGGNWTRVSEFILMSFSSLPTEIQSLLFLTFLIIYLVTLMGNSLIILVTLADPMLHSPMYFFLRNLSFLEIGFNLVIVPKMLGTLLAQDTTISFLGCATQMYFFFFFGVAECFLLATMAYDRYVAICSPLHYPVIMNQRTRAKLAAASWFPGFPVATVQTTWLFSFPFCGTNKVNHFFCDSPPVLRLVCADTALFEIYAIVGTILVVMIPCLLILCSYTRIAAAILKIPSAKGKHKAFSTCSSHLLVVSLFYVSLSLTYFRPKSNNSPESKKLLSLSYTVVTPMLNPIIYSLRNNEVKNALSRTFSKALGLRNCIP
Description: as §1, §2

[5] = target: T4, consensus OR10A2 variant of H43R, H207R, and K258T (Homo sapiens, UniProt Q9H208, A297G/C30S/G257S/H207R/H43R/I240V/K258T/M268V/N222H/T20I/V292F); assay: Luciferase assay (odorant response); assay type: cell-based
T4 construct: expressed in transfected cells; host or cells: HEK293
T4 sequence (Q9H208 with tags, fused parts or gaps with the stated changes): as the sequence (Q9H208 with tags, fused parts or gaps T20I/C30S/H207R/N222H/I240V/G257S/M268V/V292F/A297G) above, with H57R, K272T counted along it
Description: as §1, §2
(§3) Whether responsiveness coinciding with difference among individuals in sensory evaluation would be obtained was tested by applying the consensus design (c) to each human olfactory receptor newly identified in FIGS. 5 and 6, and then introducing an amino acid sequence reported to have difference among individuals (FIG. 7).

[6] = target: T5, consensus 10A4 R262Q variant (Homo sapiens, UniProt Q9H209, A244S/A267T/E4G/H132R/H139R/I140R/I51T/K296S/K303R/L305V/Q237K/Q264R/R262Q/S141A/S155P/S269P/S279Y/S293L/S312P/T22S/V195L); assay: Luciferase assay (odorant response); assay type: cell-based
T5 construct: expressed in transfected cells; host or cells: HEK293
Description: as §1, §2, §3

[7] = target: T6, consensus olfactory receptor 5C1 with N5K mutation (Homo sapiens, UniProt Q8NGR4, A10R/A30T/A50V/C35F/G245C/H231R/H313C/I178V/I206V/K177E/L166F/L6F/M255L/M47V/M55V/N23D/N5K/Q142R/Q307R/R131G/R8W/S194N/S238R/S288A/T114A/T219A/T34I/V17I/V235A); assay: Luciferase assay (odorant response); assay type: cell-based; details: versus consensus 5C1
T6 construct: expressed in transfected cells; host or cells: HEK293
T6 sequence (Q8NGR4 1-320 with the stated changes): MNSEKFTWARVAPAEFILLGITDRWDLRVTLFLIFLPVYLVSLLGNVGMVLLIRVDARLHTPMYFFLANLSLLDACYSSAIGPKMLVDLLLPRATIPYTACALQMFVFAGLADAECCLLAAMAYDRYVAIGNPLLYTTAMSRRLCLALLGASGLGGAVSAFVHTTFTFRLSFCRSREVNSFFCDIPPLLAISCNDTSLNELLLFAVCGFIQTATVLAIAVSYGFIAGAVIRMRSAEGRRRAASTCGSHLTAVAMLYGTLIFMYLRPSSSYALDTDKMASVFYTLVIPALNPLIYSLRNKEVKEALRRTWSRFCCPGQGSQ
Description: as §1, §2, §3

[8] = target: T7, consensus olfactory receptor 6B2 with R122C and C179R mutations (Homo sapiens, UniProt Q6IFH4, C161Y/C179R/C234R/E83D/G146A/H133Q/I215V/I48T/L135I/L142V/L17F/L255M/L256I/M157V/P138T/Q268R/Q89R/R122C/S64G/T78I/V136M/V15L/V166A/V250I/V281L/W219G); assay: Luciferase assay (odorant response); assay type: cell-based; details: versus consensus 6B2
T7 construct: expressed in transfected cells; host or cells: HEK293
T7 sequence (Q6IFH4 with tags, fused parts or gaps with the stated changes): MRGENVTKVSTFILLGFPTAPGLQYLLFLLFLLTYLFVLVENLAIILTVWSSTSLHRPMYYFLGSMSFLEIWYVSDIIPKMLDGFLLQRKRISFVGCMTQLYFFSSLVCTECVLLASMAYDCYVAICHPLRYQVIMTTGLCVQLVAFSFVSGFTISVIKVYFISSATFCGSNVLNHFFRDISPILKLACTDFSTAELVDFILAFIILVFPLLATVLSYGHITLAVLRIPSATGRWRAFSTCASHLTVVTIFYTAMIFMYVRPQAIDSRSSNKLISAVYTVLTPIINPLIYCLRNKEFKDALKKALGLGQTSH
Description: as §1, §2, §3

T1 sequence (A4D2G3 whole entry): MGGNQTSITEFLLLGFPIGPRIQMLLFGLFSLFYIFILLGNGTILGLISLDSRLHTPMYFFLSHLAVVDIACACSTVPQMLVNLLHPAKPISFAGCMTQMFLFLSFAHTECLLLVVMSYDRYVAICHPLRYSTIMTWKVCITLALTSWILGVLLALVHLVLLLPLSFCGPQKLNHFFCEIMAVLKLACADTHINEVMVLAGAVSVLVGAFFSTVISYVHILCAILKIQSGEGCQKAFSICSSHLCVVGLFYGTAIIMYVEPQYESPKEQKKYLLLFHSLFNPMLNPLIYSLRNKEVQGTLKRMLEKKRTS

SMILES | response of consensus 10A4 [3] | response of consensus 10A2 [4] | responsiveness of the 10A2 variant of H43R, H207R, and K258T [5] | responsiveness of the 10A4 R262Q variant [6] | also measured
CC(C)=CCC/C(C)=C/CO [geraniol] |  |  |  |  | response of 2A25 (ranking of affinity for 2 agonists) [1]: responded to geraniol at a lower concentration in comparison with geranyl formate
CC(=O)C(C)=O [diacetyl] |  |  |  |  | response of 6Y1 [2]: responds
CCCCCCC/C=C/C=O [(E)-2-decenal] | can recognize; also recorded: lower responsiveness | can recognize | markedly low responsiveness | no change in responsiveness | 
CCCCCCCCC/C=C/C=O [(E)-2-dodecenal] | can recognize; also recorded: lower responsiveness | can recognize | markedly low responsiveness | no change in responsiveness | 
CC(C)=CCCC(C)=CC=O [citral] |  |  |  |  | responsiveness of consensus 5C1 with N5K [7]: markedly reduced
CC(C)C=O [isobutyraldehyde] |  |  |  |  | responsiveness of consensus 6B2 with R122C and C179R [8]: markedly reduced
